Values quoted from earlier work in patent publication US20110268798A1, “ORALLY DISNTEGRATING TABLETS FOR THE TREATMENT OF PAIN” (ADD ADVANCED DRUG DELIVERY TECHNOLOGIES LTD, priority 2009, published 2011).

What was measured:
[1] = not given; remark: listed apart in the source

| solubility in ether | solubility in methylene chloride (methylene chloride) | solubility in water | solubility in alcohol (alcohol) | solubility in chloroform (chloroform) | stability versus pH ([1]; pH) | stability versus temperature ([1]; temperature) | SMILES | stability in air / moisture ([1]; dry air, moisture) |
| --- | --- | --- | --- | --- | --- | --- | --- | --- |
| very slightly soluble | very slightly soluble | sparingly soluble |  |  |  |  | CC(=O)Nc1ccc(O)cc1 [Acetaminophen, N-(4-hydroxyphenyl)acetamide] |  |
| soluble |  | slightly soluble | freely soluble | soluble | pH-dependent stability profile | sensitive to temperature | CC(=O)Oc1ccccc1C(=O)O [Acetylsalicylic acid, 2(acetyloxy)benzoic acid] | stable in dry air but hydrolyses in contact with moisture to acetic and salicylic acids |
